Reference: patent publication US10206400B2, “Insecticidal compounds based on isoxazoline derivatives” (Syngenta Crop Protection LLC, priority 2009, dated 2019)

Tests used:
Format in all cases: in vivo
[1] = tested on: Spodoptera littoralis; assay: Spodoptera littoralis (Egyptian cotton leafworm) leaf disc spray test; conditions: foliar, 72 h, 200 ppm spray on cotton leaf discs, L1 larvae, mortality, feeding behavior, growth regulation 3 days after treatment
Text: Cotton leaf discs were placed on agar in a 24-well microtiter plate and sprayed with test solutions at an application rate of 200 ppm. After drying, the leaf discs were infested with 5 L1 larvae. The samples were checked for mortality, feeding behavior, and growth regulation 3 days after treatment (DAT).

[2] = tested on: Heliothis virescens; assay: Heliothis virescens (tobacco budworm) egg/artificial diet test; conditions: 96 h, 200 ppm (concentration in well 18 ppm), eggs 0-24 h old on artificial diet, 4 days, egg mortality, larval mortality, growth regulation
Procedure: Eggs (0-24 h old) were placed in 24-well microtiter plate on artificial diet and treated with test solutions at an application rate of 200 ppm (concentration in well 18 ppm) by pipetting. After an incubation period of 4 days, samples were checked for egg mortality, larval mortality, and growth regulation.

[3] = tested on: Plutella xylostella; assay: Plutella xylostella (diamond back moth) artificial diet test; conditions: 144 h, 200 ppm (concentration in well 18 ppm), L2 larvae, 6 days, larval mortality, growth regulation
Procedure: (§1) 24-well microtiter plate (MTP) with artificial diet was treated with test solutions at an application rate of 200 ppm (concentration in well 18 ppm) by pipetting. After drying, the MTP's were infested with L2 larvae (7-12 per well). After an incubation period of 6 days, samples were checked for larval mortality and growth regulation.

[4] = tested on: Diabrotica balteata; assay: Diabrotica balteata (corn root worm) artificial diet test; conditions: 120 h, 200 ppm (concentration in well 18 ppm), L2 larvae, 5 days, larval mortality, growth regulation
Procedure: as §1, with “A 24-well” for “24-well”, “(6-10” for “(7-12”, “5” for “6”

[5] = tested on: Myzus persicae; assay: Myzus persicae (green peach aphid), systemic test; conditions: 144 h, roots of infested pea seedlings in test solution, 6 days, mortality, special effects on the plant
Text: Myzus persicae (Green peach aphid), systemic test: Roots of pea seedlings, infested with an aphid population of mixed ages, are placed directly in the test solutions at an application rate of 12.5 ppm. 6 days after introduction, samples are checked for mortality and special effects on the plant. The following compounds gave at least 80% control of Myzus persicae: A3, B2, B3, B5, B6, B7, B8, B11, B12, C1, C2, C3,C4, C5, C6, C7, D1, E1, E2, G1, G3, G5, G6, H1, H5, H6, H9, H10, H11, H12, H13, H14, H18, H19, H20, H24, H25, and H26.

[6] = tested on: Thrips tabaci; assay: Thrips tabaci (onion thrips) leaf disc spray test; conditions: foliar, 168 h, 200 ppm spray on sunflower leaf discs, mixed ages, 7 days, mortality
Procedure: [The procedure below names another target; the source lists this target under the same test.] Sunflower leaf discs were placed on agar in a 24-well microtiter plate and sprayed with test solutions at an application rate of 200 ppm. After drying, the leaf discs were infested with an […] population of mixed ages. After an incubation period of 7 days, samples were checked for mortality.

[7] = tested on: Tetranychus urticae; assay: Tetranychus urticae (two-spotted spider mite) leaf disc spray test; conditions: foliar, 192 h, 200 ppm spray on bean leaf discs, mixed ages, 8 days, egg, larval and adult mortality
Text: Bean leaf discs on agar in 24-well microtiter plates were sprayed with test solutions at an application rate of 200 ppm. After drying, the leaf discs are infested with mite populations of mixed ages. 8 days later, discs are checked for egg mortality, larval mortality, and adult mortality.

CCN1OC[C@@H](NC(=O)c2ccc(C3=NOC(c4cc(Cl)c(F)c(Cl)c4)(C(F)(F)F)C3)cc2C)C1=O (stereo partly drawn) [Compound C3, 4-[5-(3,5-Dichloro-4-fluoro-phenyl)-5-trifluoromethyl-4,5-dihydro-isoxazol-3-yl]-2-methyl-N-((R)-2-ethyl-3-oxo-isoxazolidin-4-yl)-benzamide]
≥ 80%: pest or weed control at 200 ppm [1] | pest or weed control at 200 ppm [2] | pest or weed control at 200 ppm [3] | pest or weed control at 200 ppm [4] | pest or weed control at 12.5 ppm [5] | pest or weed control at 200 ppm [6] | pest or weed control at 200 ppm [7]

CCN1OC[C@H](NC(=O)c2ccc(C3=NOC(c4cc(Cl)cc(Cl)c4)(C(F)(F)F)C3)cc2C)C1=O (stereo partly drawn) [Compound E2, 4-[5-(3,5-Dichloro-phenyl)-5-trifluoromethyl-4,5-dihydro-isoxazol-3-yl]-2-methyl-N-((S)-2-ethyl-3-oxo-isoxazolidin-4-yl)-benzamide]
≥ 80%: pest or weed control at 200 ppm [1] | pest or weed control at 200 ppm [2] | pest or weed control at 200 ppm [3] | pest or weed control at 200 ppm [4] | pest or weed control at 12.5 ppm [5] | pest or weed control at 200 ppm [6] | pest or weed control at 200 ppm [7]

CCN1OC[C@@H](NC(=O)c2ccc(C3=NOC(c4cc(Cl)c(Cl)c(Cl)c4)(C(F)(F)F)C3)cc2C)C1=O (stereo partly drawn) [Compound C1, 4-[5-(3,4,5-Trichloro-phenyl)-5-trifluoromethyl-4,5-dihydro-isoxazol-3-yl]-2-methyl-N-((R)-2-ethyl-3-oxo-isoxazolidin-4-yl)-benzamide]
≥ 80%: pest or weed control at 200 ppm [1] | pest or weed control at 200 ppm [2] | pest or weed control at 200 ppm [3] | pest or weed control at 200 ppm [4] | pest or weed control at 12.5 ppm [5] | pest or weed control at 200 ppm [6] | pest or weed control at 200 ppm [7]
